From patent US9944654B2, “Nargenicin compounds and uses thereof as antibacterial agents” (priority 2014, dated 2018) come the findings set out here.

The structures appear in SMILES notation. Converted amounts (≈) assume the structure as drawn. “And” between values parts separate entries of the source, which are not always exact repeats. Equal values may be shown once. Read-outs that look alike come from different tables or passages of the source.

The subject of assay [1] is Staphylococcus aureus MB6266 (MRSA COL). Description: Nargenicin antibacterial assay (MIC), S. aureus. Format: cell-based. Conditions: Staphylococcus aureus, MRSA, read-out: S. aureus COL (MIC), MHII broth + 50% human serum; * = some reduction of growth versus control at […].
Assay [2] addresses T1, S. aureus DnaE (DNA polymerase III α-subunit homolog from Staphylococcus aureus) (Staphylococcus aureus, UniProt Q5HF71).
T1 construct: SaDnaE (S. aureus DnaE residues 1-1065); 6xHis (N); made in house; host or cells: E. coli BL21-AI
T1 sequence (Q5HF71 1-1065): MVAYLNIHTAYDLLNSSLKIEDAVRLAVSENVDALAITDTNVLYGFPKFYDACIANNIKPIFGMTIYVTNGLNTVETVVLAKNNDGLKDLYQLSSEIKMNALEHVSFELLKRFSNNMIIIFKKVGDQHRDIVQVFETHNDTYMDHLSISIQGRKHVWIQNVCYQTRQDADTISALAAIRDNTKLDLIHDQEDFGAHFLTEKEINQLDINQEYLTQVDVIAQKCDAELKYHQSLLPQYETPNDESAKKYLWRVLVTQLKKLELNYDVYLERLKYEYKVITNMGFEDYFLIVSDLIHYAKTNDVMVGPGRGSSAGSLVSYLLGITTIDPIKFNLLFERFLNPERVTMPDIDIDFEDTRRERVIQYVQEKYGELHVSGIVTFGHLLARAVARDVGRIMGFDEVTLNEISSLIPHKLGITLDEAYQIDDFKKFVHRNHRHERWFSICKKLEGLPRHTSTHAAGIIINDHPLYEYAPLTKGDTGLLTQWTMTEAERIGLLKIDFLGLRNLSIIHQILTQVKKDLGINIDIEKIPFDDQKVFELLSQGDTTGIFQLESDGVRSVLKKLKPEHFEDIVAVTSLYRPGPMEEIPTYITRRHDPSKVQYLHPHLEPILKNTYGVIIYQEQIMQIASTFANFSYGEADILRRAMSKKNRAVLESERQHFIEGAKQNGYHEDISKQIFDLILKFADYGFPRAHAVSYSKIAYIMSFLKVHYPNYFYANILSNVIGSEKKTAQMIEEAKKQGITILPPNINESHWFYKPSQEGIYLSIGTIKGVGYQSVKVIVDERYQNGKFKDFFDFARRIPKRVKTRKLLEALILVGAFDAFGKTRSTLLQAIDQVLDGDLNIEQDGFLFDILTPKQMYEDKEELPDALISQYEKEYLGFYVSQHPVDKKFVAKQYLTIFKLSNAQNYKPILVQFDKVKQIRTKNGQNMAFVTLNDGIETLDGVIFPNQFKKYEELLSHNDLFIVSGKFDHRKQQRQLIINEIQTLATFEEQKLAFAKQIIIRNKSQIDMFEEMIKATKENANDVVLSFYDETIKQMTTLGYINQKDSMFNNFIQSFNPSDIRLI
Description: biochemical. Format: biochemical. The conditions noted are these: S. aureus DnaE IC50. Here is the method: (§1) Plasmids encoding EcDnaE (E. coli DnaE residues 1-1160) and SaDnaE (S. aureus DnaE residues 1-1065) with 6×His N-terminal tags, were overexpressed in BL21(DE3) and BL21-AI cells (Invitrogen), respectively. Cells were grown in LB media to an OD ˜0.45 pelleted and then resuspended in Minimal Media, as described in Pryor et al. (1997, Protein Expr Purif. 10:309-19), and inducer (0.4 mM IPTG or 0.2% arabinose) for 21 hours at 18° C. at 220 rpm. Cells were then harvested, frozen for 20 minutes at −80° C. and thawed. Pellets were resuspended in 1× Talon buffer (50 mM Sodium Phosphate, 300 mM Sodium Chloride, pH 7.4) +10% glycerol +Roche PI's (-EDTA). Cells were lysed with two passes through a French press, then centrifuged for 45 minutes at 40,000 rpm (70Ti, Beckman). Supernatant was bound to 5 mL TALON resin (CLONTECH) for 1 hour at room temperature on Nutator. TALON resin was washed with 10 mM imidizole, and DnaE was eluted with 250 mM imidizole. Eluate was concentrated and run on a size exclusion column (SEC200, GE Healthcare) in the following buffer; 25 mM HEPES, 30 mM NaCl,1 mM CaCl2, 5% glycerol, pH 7.9. Pool SEC fractions based on SDS-PAGE run, aliquot, freeze, and store at -80° C.
(§2) DnaE was diluted in 50 mM potassium phosphate pH 7.5, 5 mM BME, 10% glycerol and 200 mM NaCl prior to use.
(§3) The purpose of the DnaE single enzyme assay is to determine the ability of compounds to inhibit the DNA polymerase III α-subunit homolog from Staphylococcus aureus or the α-subunit from Escherichia coli without the other components of the replication machinery. The DnaE single enzyme assay was a modified version of the method, Standard Pol III Assay Using Activated DNA and Four dNTPs, described by Butler et al., 2008, Methods in Molecular Medicine: New Antibiotic Targets 142:25-36. Briefly, in 96-well plates, enzyme was added to a mixture containing 30 mM Tris-HCl pH 7.5, 20% glycerol, 4 mM DTT, 10 mM Mg acetate, 0.025 mM dATP, 0.025 mM dGTP, 0.025 mM dc:TP, 0.011 mM ^3H-dTTP 1 mCi/ml (Perkin-Elmer), and 0.298 mg/mL Dnase I (Sigma) treated “activated” Calf Thymus DNA (Worthington Biochemical). The assay was set up so that 5 μl of compound was distributed to the plates, 90 μl of reaction mix was added to the compound, and 5 μl of enzyme was added to start the reaction. Assays were initiated by the addition of 0.8 μg/ml E. coli or 0.05 μg/ml S. aureus DnaE, incubated for 30 min at 30° C., and terminated by the addition of a 20% trichloroacetic acid and 0.2% sodium pyrophosphate solution. Precipitated labeled DNA was collected on Glass-fiber Filtermat A using Micro96 Harvester, and the filters were washed, dried, and counted in a Microbeta Trilux (Perkin Elmer). Serial dilutions of compounds (in DMSO) were added to the plates before enzyme addition.

Assay [3] concerns Streptococcus pneumoniae MB6357 (CL 2883). Description: Nargenicin antibacterial assay (MIC), S. pneumoniae. The class given is cell-based. The conditions noted are these: Streptococcus pneumoniae, read-out: S. pneumoniae MB2883 (MIC), Isosensitest broth; * = some reduction of growth versus control at […].
Assay [4] concerns the target T2, E. coli DnaE (DNA polymerase III α-subunit from Escherichia coli) (Escherichia coli, UniProt P10443).
T2 construct: EcDnaE (E. coli DnaE residues 1-1160); 6xHis (N); made in house; host or cells: E. coli BL21(DE3)
Description: In vitro DnaE single enzyme assay (E. coli). The class given is biochemical. Here is the method:
as §1, §2, §3

For assay [5], the system named is Pseudomonas aeruginosa MB5890 (CB1101, efflux-deleted). Description: microbe, parasite or virus in culture. Conditions: * = some reduction of growth versus control at […]; for MIC: Pseudomonas aeruginosa, read-out: P. aeruginosa MB5890 efflux-del (MIC), MHII broth. The class given is cell-based.
The subject of assay [6] is Escherichia coli MB5747 (LS 883, tolC). Description: microbe, parasite or virus in culture. Format: cell-based. Conditions: * = some reduction of growth versus control at […]; for MIC: Escherichia coli, read-out: E. coli LS883 tolC (MIC), MHII broth.
Setting [7] is: read-out: E. coli DnaE IC50 (converted).

T2 sequence (P10443 whole entry, the tested form may be a part): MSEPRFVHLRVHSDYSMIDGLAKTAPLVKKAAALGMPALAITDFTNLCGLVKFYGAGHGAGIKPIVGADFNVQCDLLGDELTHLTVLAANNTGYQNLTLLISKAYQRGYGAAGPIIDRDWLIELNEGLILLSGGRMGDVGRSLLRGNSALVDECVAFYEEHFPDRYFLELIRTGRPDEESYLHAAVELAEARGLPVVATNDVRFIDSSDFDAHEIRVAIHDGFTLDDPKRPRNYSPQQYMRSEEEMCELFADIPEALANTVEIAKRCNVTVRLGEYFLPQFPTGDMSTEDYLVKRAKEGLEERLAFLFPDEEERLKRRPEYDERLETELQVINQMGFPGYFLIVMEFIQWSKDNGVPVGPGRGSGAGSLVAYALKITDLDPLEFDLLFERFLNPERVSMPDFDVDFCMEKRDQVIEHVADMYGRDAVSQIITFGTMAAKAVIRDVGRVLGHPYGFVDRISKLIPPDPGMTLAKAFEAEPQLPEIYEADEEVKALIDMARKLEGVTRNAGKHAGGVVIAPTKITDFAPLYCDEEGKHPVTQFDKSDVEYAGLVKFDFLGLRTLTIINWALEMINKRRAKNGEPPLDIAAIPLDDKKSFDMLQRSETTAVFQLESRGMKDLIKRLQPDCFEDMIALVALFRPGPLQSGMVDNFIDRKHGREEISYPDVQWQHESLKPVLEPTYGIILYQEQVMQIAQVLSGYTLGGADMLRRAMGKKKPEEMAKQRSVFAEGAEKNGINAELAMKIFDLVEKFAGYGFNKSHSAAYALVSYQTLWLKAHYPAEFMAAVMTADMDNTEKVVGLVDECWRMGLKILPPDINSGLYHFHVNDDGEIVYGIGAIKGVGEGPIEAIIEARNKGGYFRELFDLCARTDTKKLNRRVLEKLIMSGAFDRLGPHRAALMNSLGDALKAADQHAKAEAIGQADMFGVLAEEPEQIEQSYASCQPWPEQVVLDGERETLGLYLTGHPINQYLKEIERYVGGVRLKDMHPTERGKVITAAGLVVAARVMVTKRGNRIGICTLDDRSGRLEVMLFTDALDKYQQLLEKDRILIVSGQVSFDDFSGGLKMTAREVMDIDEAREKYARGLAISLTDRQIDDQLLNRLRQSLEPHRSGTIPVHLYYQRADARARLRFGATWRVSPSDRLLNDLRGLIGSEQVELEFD

As usually defined, the IC50 is the concentration that gives 50% inhibition. In the case of `CC[C@H]1OC(=O)[C@@H](OC)C[C@H]2C=C[C@H]3[C@H]4O[C@]2(/C(C)=C/[C@H]1C)[C@@H]3[C@H](O)C(C)[C@H]4C#N` (stereo partly drawn) [Example 189, (3R,4R,7S,8aS,10aR,11R,12S,14R,14aS,14bS,E)-4-ethyl-14-hydroxy-7-methoxy-1,3,13-trimethyl-6-oxo-3,4,6,7,8,8a,10a,11,12,13,14,14a-dodecahydro-11,14b-epoxynaphtho[2,1-e]oxecine-12-carbonitrile], the MIC in assay [1], in assay [3], in assay [5] and in assay [6] was above 128 µg/mL throughout. Besides, the IC50 is 144 µM in assay [2] and above 241 µM in assay [4] (setting [7]).
With `CO[C@H]1C[C@H]2C=CC3C4[C@H](OC(=O)C(=O)OCCN5CCN(C)CC5)[C@@H](C)[C@@H](OC(=O)c5ccc[nH]5)[C@@H]3O[C@]42/C(C)=C/[C@@H](C)[C@@H]([C@@H](C)OC(=O)C(=O)OCCN2CCN(C)CC2)OC1=O.O=C(O)C(F)(F)F` [Example 209], the MIC is 4 µg/mL in assay [1], above 128 µg/mL in assay [3], above 128 µg/mL in assay [5] and 4 µg/mL in assay [6]. Further, the half-inhibitory concentration (IC50) in assay [2] was below 0.00585 µM; in assay [4] (setting [7]) it was 16.6 µM.
For `CO[C@H]1C[C@H]2C=C[C@H]3[C@H]4O[C@]2(/C(C)=C/[C@@H](C)[C@@H]([C@@H](C)O)OC1=O)[C@@H]3[C@H](O)[C@@H](C)[C@H]4OC(C)=O` [Example 186], the MIC in assay [1] is 8 µg/mL; in assay [3], above 128 µg/mL; in assay [5], 16 µg/mL (≈ 34.4 µM); in assay [6], 4 µg/mL (≈ 8.61 µM). Moreover, the values for the half-maximal inhibitory concentration (IC50) in assay [2] and in assay [4] (setting [7]) were around 0.00969 µM and 64.6 µM, respectively.
For the molecule `CO[C@H]1C[C@H]2C=C[C@H]3[C@H]4O[C@]2(/C(C)=C/[C@@H](C)[C@@H]([C@@H](C)OC(N)=O)OC1=O)[C@@H]3[C@H](O)[C@@H](C)[C@H]4OC(=O)c1ccc[nH]1` [Example 7], the MIC is 4 µg/mL in assay [1], above 128 µg/mL in assay [3], 32 µg/mL (≈ 57.3 µM) in assay [5] and 2 µg/mL (≈ 3.58 µM) in assay [6]. Further, the concentration for half-maximal inhibition (IC50) in assay [2] was below 0.0107 µM; in assay [4] (setting [7]) it was 53.7 µM.
`CO[C@H]1C[C@H]2C=C[C@H]3[C@H]4O[C@]2(/C(C)=C/[C@@H](C)[C@@H]([C@@H](C)O)OC1=O)[C@@H]3[C@H](O)[C@@H](C)[C@H]4OC(=O)c1cc(Br)c[nH]1` [Example 46]: the MIC amounted to 8 µg/mL in assay [1], 64 µg/mL (≈ 108 µM) in assay [3], 128 µg/mL (≈ 215 µM) in assay [5] and 2 µg/mL (≈ 3.36 µM) in assay [6]. In addition, the half-maximal inhibitory concentration (IC50) in assay [2] is 0.0151 µM; in assay [4] (setting [7]), 16.8 µM.
`CO[C@H]1C[C@H]2C=CC3C4[C@H](O)[C@@H](C)[C@@H](OC(=O)c5cc(NC(=O)c6ccccc6)c[nH]5)[C@@H]3O[C@]42/C(C)=C/[C@@H](C)[C@@H]([C@@H](C)O)OC1=O` [Example 167, (3R,4S,7S,8aS,11R,12R,13R,14R,14bS,E)-14-hydroxy-4-((R)-1-hydroxyethyl)-7-methoxy-1,3,13-trimethyl-6-oxo-3,4,6,7,8,8a,10a,11,12,13,14,14a-dodecahydro-11,14b-epoxynaphtho[2,1-e]oxecin-12-yl 4-benzamido-1H-pyrrole-2-carboxylate]: the MIC in assay [1], in assay [3], in assay [5] and in assay [6] was above 128 µg/mL throughout. Further, the IC50 in assay [2] was 3.15 µM; in assay [4] (setting [7]), above 158 µM.
For `CC[C@H]1OC(=O)[C@@H](OC)C[C@H]2C=C[C@H]3[C@H]4O[C@]2(/C(C)=C/[C@H]1C)[C@@H]3[C@H](O)[C@@H](C)[C@H]4OC(=O)c1ccc[nH]1` [Example 159], the MIC in assay [1] was 2 µg/mL; in assay [5], 32 µg/mL (≈ 64.1 µM); in assay [6], 4 µg/mL (≈ 8.01 µM). Further, the half-maximal inhibitory concentration (IC50) is below 0.006 µM in assay [2]; 36 µM and 22 µM and 30 µM and 20 µM in assay [4] (E. coli DnaE IC50). Moreover, the “P. aeruginosa MB5890 efflux-del (MIC)” value in assay [5] (MHII broth) worked out at 16 µg/mL. In addition, the “E. coli LS883 tolC (MIC)” value in assay [6] (MHII broth) turned out to be 2 µg/mL.
